Test results from US20090136514A1, “Tetracyclines for Treating Ocular Diseases and Disorders” (priority 2005, published 2009).

Experiments:
[1] = system: VEGF-mediated retinal vascular damage; assay: VEGF-induced retinal vascular leakage in rabbits, fundus photography and fluorescein angiography; assay type: in vivo, Dutch Belted rabbits; design: Leakage, mean score / Hemorrhage/Microaneurism, mean score / Edema, mean score: scale not given here; details: for Edema, mean score / Hemorrhage/Microaneurism, mean score / Leakage, mean score / Edema, Difference (Doxy-Vehicle) / (Kenalog-Vehicle) / Hemorrhage/Microaneurism, Difference (Doxy-Vehicle) / (Kenalog-Vehicle) / Leakage, Difference (Doxy-Vehicle) / (Kenalog-Vehicle) / Edema, Difference (Kenalog-Doxy) / Hemorrhage/Microaneurism, Difference (Kenalog-Doxy) / Leakage, Difference (Kenalog-Doxy): 48 hours post-dosing; for Edema, mean score / Hemorrhage/Microaneurism, mean score / Leakage, mean score: 50 μl intravitreal before VEGF165; for Edema, Difference (Doxy-Vehicle) / (Kenalog-Vehicle) / Hemorrhage/Microaneurism, Difference (Doxy-Vehicle) / (Kenalog-Vehicle) / Leakage, Difference (Doxy-Vehicle) / (Kenalog-Vehicle): difference of mean scores to vehicle; for Edema, Difference (Kenalog-Doxy) / Hemorrhage/Microaneurism, Difference (Kenalog-Doxy) / Leakage, Difference (Kenalog-Doxy): difference of mean scores to Doxy
Description: Retinal vascular leakage was induced in rabbits by intravitreal injection of VEGF according to the procedures set forth in Edelman et al., Experimental Eye Research 80:249-258 (2005). The protective effect of doxycycline on VEGF-mediated retinal vascular damage was assessed. A total of 12 Dutch Belted rabbits (Covance) were anesthetized with isoflurane inhalation and topical 0.5% proparacaine hydrochloride and each eye studied (24 eyes total). Four animals received a 50 μl intravitreal injection of 0.025% bovine serum albumin (BSA) in sterile phosphate-buffered saline (PBS) (Dow Pharmaceutical Sciences) (vehicle, eight eyes total). Doxycycline was formulated from anhydrous doxycycline (Dow Pharmaceutical Sciences) and reconstituted as a saturated solution of doxycycline in 0.025% BSA in PBS assayed to be at a final doxycycline concentration of approximately 0.067 weight percent. Four animals received 50 μl of the doxycycline formulation in each eye (eight eyes total). Four animals received 50 μl of a 40 mg/mL solution of triamcinolone acetonide (Kenalog®, Bristol Myers-Squibb) in 0.025% BSA in PBS (positive control, eight eyes total). Each injection was followed by a 50 μl intravitreal injection of a 10 μg/mL solution of recombinant human VEGF165 (Vascular Endothelial Growth Factor 165 amino acid residue variant, R&D Systems) in 0.025% BSA in PBS. A 30-gauge ⅝-inch needle was used for the injections. VEGF was purchased from R&D Systems (Minneapolis, Minn.).
Prior to injections, eyes were prepared for injection with 1% tropicamide (2 drops), followed ten minutes later by phenylephrine hydrochloride 2.5% (2 drops). An ophthalmic Betadine solution was then used to moisten the eyes. […]. After five minutes, the Betadine was washed out of the eyes with sterile saline and proparacaine hydrochloride was delivered to each eye.
Animals were then anesthetized with an intravenous injection of a ketamine/xylazine cocktail (77 mg/mL ketamine, 23 mg/mL xylazine) at 0.1 mL/kg.
Vascular leakage, hemorrhage, and edema were assessed using fundus photography and fluorescein angiography (see Table 1). Rabbits were anesthetized with subcutaneous 100 mg/mL ketamine at 35 mg/kg and 100 mg/mL xylazine at 7 mg/kg, eyes were dilated with topical 1% tropicamide, and angiograms were obtained with a Topeon TRC-501X retinal camera coupled to a personal computer with IMAGEnet 2000 software (Topcon Medical Systems Inc., Paramus, N.J.). Intravenous sodium fluorescein injection (12 mg/kg) was performed 48 hours after intravitreal injection of VEGF. Late-phase angiography was performed 4-6 min after intravenous sodium fluorescein injection, […]

diabetic retinopathy [2] = assay: Oral doxycycline in patients suffering from diabetic retinopathy; assay type: in vivo, Humans; details: 50 mg orally twice a day for eight weeks
Description: (§1) Ten patients suffering from diabetic retinopathy are treated with oral doxycycline 50 mg orally twice a day for eight weeks. The patients are monitored for improvement of macular edema and vascular leakage by fluorescein angiography and scanning ocular fluorophotometry. Decreased vascular leakage in response to doxycycline administration is observed, which leads to a decrease in edema and improved visual acuity.

diabetic retinopathy [3] = assay: Topical doxycycline in patients suffering from diabetic retinopathy; assay type: in vivo, Humans; details: between 0.025% and 0.1% daily for one month
Description: as §1, with “topical doxycycline. Two patients each are administered” for “oral”, “at” for “50 mg orally twice”, “concentration selected to be between 0.025% and 0.1% daily” for “day”, “one month.” for “eight weeks.”, “acuity in most or all of the patients treated.” for “acuity.”

pre-IL-1β = pre-IL-1β cleavage by ELISA in human choroidal cultures; assay type: cell-based; details: 0.001% to 5.0% doxycycline
[4] = most or all of the patients treated

| Compound | Edema, mean score ([1]; Combined Eyes) | Hemorrhage/Microaneurism, mean score ([1]; Combined Eyes) | Leakage, mean score ([1]; Combined Eyes) | Edema, Difference (Doxy-Vehicle) / (Kenalog-Vehicle) ([1]; Combined Eyes) | Hemorrhage/Microaneurism, Difference (Doxy-Vehicle) / (Kenalog-Vehicle) ([1]; Combined Eyes) | Leakage, Difference (Doxy-Vehicle) / (Kenalog-Vehicle) ([1]; Combined Eyes) | Edema, mean score ([1]; Left Eye) | Hemorrhage/Microaneurism, mean score ([1]; Left Eye) | Leakage, mean score ([1]; Left Eye) | Edema, Difference (Doxy-Vehicle) / (Kenalog-Vehicle) ([1]; Left Eye) | Hemorrhage/Microaneurism, Difference (Doxy-Vehicle) / (Kenalog-Vehicle) ([1]; Left Eye) | Leakage, Difference (Doxy-Vehicle) / (Kenalog-Vehicle) ([1]; Left Eye) | Edema, mean score ([1]; Right Eye) | Hemorrhage/Microaneurism, mean score ([1]; Right Eye) | Leakage, mean score ([1]; Right Eye) | Edema, Difference (Doxy-Vehicle) / (Kenalog-Vehicle) ([1]; Right Eye) | Hemorrhage/Microaneurism, Difference (Doxy-Vehicle) / (Kenalog-Vehicle) ([1]; Right Eye) | Leakage, Difference (Doxy-Vehicle) / (Kenalog-Vehicle) ([1]; Right Eye) | Edema ([1]; combined eyes) [units] | Hemorrhage/microaneurism ([1]; combined eyes) [units] | also measured |
| --- | --- | --- | --- | --- | --- | --- | --- | --- | --- | --- | --- | --- | --- | --- | --- | --- | --- | --- | --- | --- | --- |
| C[C@H]1c2cccc(O)c2C(O)=C2C(=O)[C@]3(O)C(O)=C(C(N)=O)C(=O)[C@@H](N(C)C)[C@@H]3[C@@H](O)[C@@H]21 [Doxy, doxycycline] | 2.00 | 1.63 | 2.06 | −0.69 | −0.94 | −0.75 | 3.25 | 2.25 | 3.13 | 0.50 | 0.00 | 0.38 | 1.75 | 2 | 1.75 | −0.25 | −0.25 | −0.50 | 2.0 | 1.63 | VEGF-mediated retinal vascular damage ([1]; as compared to the rabbits that received vehicle): reduced; Leakage ([1]; combined eyes): 2.06 units; Edema ([1]; left eye): 3.25 units; Hemorrhage/microaneurism ([1]; left eye): 2.25 units; Leakage ([1]; left eye): 3.13 units; Edema ([1]; right eye): 1.75 units; Hemorrhage/microaneurism ([1]; right eye): 2.0 units; Leakage ([1]; right eye): 1.75 units; Edema (diabetic retinopathy [2]): decrease; visual acuity (diabetic retinopathy [2]): improved; vascular leakage (diabetic retinopathy [2]; fluorescein angiography and scanning ocular fluorophotometry): Decreased; vascular leakage (diabetic retinopathy [3]): Decreased; Edema (diabetic retinopathy [3]; [4]): decrease; visual acuity (diabetic retinopathy [3]; [4]): improved; pre-IL-1β cleavage (pre-IL-1β): correlate directly with increasing doxycycline concentrations |
| CC1(C)O[C@@H]2C[C@H]3[C@@H]4CCC5=CC(=O)C=C[C@]5(C)[C@@]4(F)[C@@H](O)C[C@]3(C)[C@]2(C(=O)CO)O1 [Kenalog, triamcinolone acetonide] | 1.13 | 1.00 | 0.25 | −1.56 | −1.56 | −2.56 | 1.25 | 1.13 | 0.50 | −1.50 | −1.13 | −2.25 | 1.13 | 0.75 | 0.25 | −0.88 | −1.50 | −2.00 | 1.13 | 1.00 | Edema, Difference (Kenalog-Doxy) ([1]; Combined Eyes): −0.88; Hemorrhage/Microaneurism, Difference (Kenalog-Doxy) ([1]; Combined Eyes): −0.63; Leakage, Difference (Kenalog-Doxy) ([1]; Combined Eyes): −1.81; Edema, Difference (Kenalog-Doxy) ([1]; Left Eye): −2.00; Hemorrhage/Microaneurism, Difference (Kenalog-Doxy) ([1]; Left Eye): −1.13; Leakage, Difference (Kenalog-Doxy) ([1]; Left Eye): −2.63; Edema, Difference (Kenalog-Doxy) ([1]; Right Eye): −0.63; Hemorrhage/Microaneurism, Difference (Kenalog-Doxy) ([1]; Right Eye): −1.25; Leakage, Difference (Kenalog-Doxy) ([1]; Right Eye): −1.50; Leakage ([1]; combined eyes): 0.25 units; Edema ([1]; left eye): 1.25 units; Hemorrhage/microaneurism ([1]; left eye): 1.13 units; Leakage ([1]; left eye): 0.50 units; Edema ([1]; right eye): 1.13 units; Hemorrhage/microaneurism ([1]; right eye): 0.75 units; Leakage ([1]; right eye): 0.25 units |
